Reference: the OligoGym collection
Oligonucleotides are given in HELM: sugar(base)linkage, 5' to 3'; d 2'-deoxyribose, r ribose, m 2'-O-methylribose, p phosphate. ss, as = sense and antisense strand
Note: test concentration or dose not given here.

Each substance was assayed against UBE2K (assay: reporter assay of Huesken 2005). Conditions: siRNA.
Substance “RNA1{r(A)p.r(G)p.r(A)p.r(U)p.r(G)p.r(A)p.r(U)p.r(C)p.r(C)p.r(A)p.r(C)p.r(A)p.r(G)p.r(G)p.r(A)p.r(U)p.r(G)p.r(C)p.r(U)p.d(T)p.d(T)}|RNA2{r(A)p.r(G)p.r(C)p.r(A)p.r(U)p.r(C)p.r(C)p.r(U)p.r(G)p.r(U)p.r(G)p.r(G)p.r(A)p.r(U)p.r(C)p.r(A)p.r(U)p.r(C)p.r(U)p.d(G)p.d(G)}$$$RNA1{StrandType:ss}|RNA2{StrandType:as}$” has a normalised inhibition (eCFP-eYFP dual reporter) of 68%. With “RNA1{r(A)p.r(G)p.r(C)p.r(A)p.r(A)p.r(A)p.r(U)p.r(C)p.r(A)p.r(G)p.r(U)p.r(A)p.r(C)p.r(A)p.r(A)p.r(A)p.r(C)p.r(A)p.r(A)p.d(T)p.d(T)}|RNA2{r(U)p.r(U)p.r(G)p.r(U)p.r(U)p.r(U)p.r(G)p.r(U)p.r(A)p.r(C)p.r(U)p.r(G)p.r(A)p.r(U)p.r(U)p.r(U)p.r(G)p.r(C)p.r(U)p.d(A)p.d(C)}$$$RNA1{StrandType:ss}|RNA2{StrandType:as}$” the normalised inhibition (eCFP-eYFP dual reporter) was 77.8%. “RNA1{r(A)p.r(G)p.r(G)p.r(A)p.r(C)p.r(C)p.r(U)p.r(C)p.r(C)p.r(A)p.r(G)p.r(A)p.r(C)p.r(A)p.r(C)p.r(A)p.r(C)p.r(C)p.r(A)p.d(T)p.d(T)}|RNA2{r(U)p.r(G)p.r(G)p.r(U)p.r(G)p.r(U)p.r(G)p.r(U)p.r(C)p.r(U)p.r(G)p.r(G)p.r(A)p.r(G)p.r(G)p.r(U)p.r(C)p.r(C)p.r(U)p.d(G)p.d(C)}$$$RNA1{StrandType:ss}|RNA2{StrandType:as}$” showed a normalised inhibition (eCFP-eYFP dual reporter) of 74.6%. Substance “RNA1{r(A)p.r(G)p.r(G)p.r(A)p.r(G)p.r(A)p.r(A)p.r(A)p.r(U)p.r(A)p.r(G)p.r(C)p.r(A)p.r(G)p.r(G)p.r(A)p.r(C)p.r(C)p.r(U)p.d(T)p.d(T)}|RNA2{r(A)p.r(G)p.r(G)p.r(U)p.r(C)p.r(C)p.r(U)p.r(G)p.r(C)p.r(U)p.r(A)p.r(U)p.r(U)p.r(U)p.r(C)p.r(U)p.r(C)p.r(C)p.r(U)p.d(C)p.d(T)}$$$RNA1{StrandType:ss}|RNA2{StrandType:as}$” has a normalised inhibition (eCFP-eYFP dual reporter) of 69.4%. “RNA1{r(A)p.r(G)p.r(G)p.r(A)p.r(G)p.r(G)p.r(A)p.r(A)p.r(G)p.r(A)p.r(U)p.r(A)p.r(C)p.r(C)p.r(A)p.r(A)p.r(C)p.r(U)p.r(A)p.d(T)p.d(T)}|RNA2{r(U)p.r(A)p.r(G)p.r(U)p.r(U)p.r(G)p.r(G)p.r(U)p.r(A)p.r(U)p.r(C)p.r(U)p.r(U)p.r(C)p.r(C)p.r(U)p.r(C)p.r(C)p.r(U)p.d(T)p.d(C)}$$$RNA1{StrandType:ss}|RNA2{StrandType:as}$” gave a normalised inhibition (eCFP-eYFP dual reporter) of 75.4%. With “RNA1{r(A)p.r(G)p.r(G)p.r(A)p.r(U)p.r(G)p.r(C)p.r(U)p.r(G)p.r(U)p.r(A)p.r(G)p.r(U)p.r(A)p.r(G)p.r(C)p.r(A)p.r(A)p.r(A)p.d(T)p.d(T)}|RNA2{r(U)p.r(U)p.r(U)p.r(G)p.r(C)p.r(U)p.r(A)p.r(C)p.r(U)p.r(A)p.r(C)p.r(A)p.r(G)p.r(C)p.r(A)p.r(U)p.r(C)p.r(C)p.r(U)p.d(G)p.d(T)}$$$RNA1{StrandType:ss}|RNA2{StrandType:as}$” the normalised inhibition (eCFP-eYFP dual reporter) was 92.1%. “RNA1{r(A)p.r(G)p.r(G)p.r(G)p.r(G)p.r(C)p.r(U)p.r(A)p.r(U)p.r(U)p.r(U)p.r(G)p.r(U)p.r(U)p.r(U)p.r(G)p.r(G)p.r(A)p.r(U)p.d(T)p.d(T)}|RNA2{r(A)p.r(U)p.r(C)p.r(C)p.r(A)p.r(A)p.r(A)p.r(C)p.r(A)p.r(A)p.r(A)p.r(U)p.r(A)p.r(G)p.r(C)p.r(C)p.r(C)p.r(C)p.r(U)p.d(G)p.d(T)}$$$RNA1{StrandType:ss}|RNA2{StrandType:as}$” gave a normalised inhibition (eCFP-eYFP dual reporter) of 71%. For “RNA1{r(A)p.r(G)p.r(U)p.r(A)p.r(G)p.r(A)p.r(U)p.r(C)p.r(U)p.r(U)p.r(G)p.r(U)p.r(A)p.r(G)p.r(A)p.r(U)p.r(G)p.r(A)p.r(G)p.d(T)p.d(T)}|RNA2{r(C)p.r(U)p.r(C)p.r(A)p.r(U)p.r(C)p.r(U)p.r(A)p.r(C)p.r(A)p.r(A)p.r(G)p.r(A)p.r(U)p.r(C)p.r(U)p.r(A)p.r(C)p.r(U)p.d(T)p.d(T)}$$$RNA1{StrandType:ss}|RNA2{StrandType:as}$”, the normalised inhibition (eCFP-eYFP dual reporter) was 88.2%. In the case of “RNA1{r(A)p.r(U)p.r(A)p.r(C)p.r(C)p.r(A)p.r(A)p.r(C)p.r(U)p.r(A)p.r(G)p.r(A)p.r(G)p.r(A)p.r(U)p.r(A)p.r(A)p.r(A)p.r(A)p.d(T)p.d(T)}|RNA2{r(U)p.r(U)p.r(U)p.r(U)p.r(A)p.r(U)p.r(C)p.r(U)p.r(C)p.r(U)p.r(A)p.r(G)p.r(U)p.r(U)p.r(G)p.r(G)p.r(U)p.r(A)p.r(U)p.d(C)p.d(T)}$$$RNA1{StrandType:ss}|RNA2{StrandType:as}$”, the normalised inhibition (eCFP-eYFP dual reporter) is reported as 78.5%. For “RNA1{r(A)p.r(U)p.r(A)p.r(C)p.r(C)p.r(A)p.r(G)p.r(A)p.r(A)p.r(A)p.r(C)p.r(A)p.r(U)p.r(A)p.r(C)p.r(C)p.r(C)p.r(A)p.r(U)p.d(T)p.d(T)}|RNA2{r(A)p.r(U)p.r(G)p.r(G)p.r(G)p.r(U)p.r(A)p.r(U)p.r(G)p.r(U)p.r(U)p.r(U)p.r(C)p.r(U)p.r(G)p.r(G)p.r(U)p.r(A)p.r(U)p.d(T)p.d(T)}$$$RNA1{StrandType:ss}|RNA2{StrandType:as}$”, the normalised inhibition (eCFP-eYFP dual reporter) was 76.3%. With “RNA1{r(A)p.r(U)p.r(A)p.r(G)p.r(C)p.r(A)p.r(G)p.r(G)p.r(A)p.r(C)p.r(C)p.r(U)p.r(C)p.r(C)p.r(A)p.r(G)p.r(A)p.r(C)p.r(A)p.d(T)p.d(T)}|RNA2{r(U)p.r(G)p.r(U)p.r(C)p.r(U)p.r(G)p.r(G)p.r(A)p.r(G)p.r(G)p.r(U)p.r(C)p.r(C)p.r(U)p.r(G)p.r(C)p.r(U)p.r(A)p.r(U)p.d(T)p.d(T)}$$$RNA1{StrandType:ss}|RNA2{StrandType:as}$” the normalised inhibition (eCFP-eYFP dual reporter) was 69.8%. “RNA1{r(A)p.r(U)p.r(C)p.r(A)p.r(A)p.r(U)p.r(G)p.r(G)p.r(G)p.r(C)p.r(A)p.r(G)p.r(C)p.r(U)p.r(G)p.r(C)p.r(A)p.r(A)p.r(U)p.d(T)p.d(T)}|RNA2{r(A)p.r(U)p.r(U)p.r(G)p.r(C)p.r(A)p.r(G)p.r(C)p.r(U)p.r(G)p.r(C)p.r(C)p.r(C)p.r(A)p.r(U)p.r(U)p.r(G)p.r(A)p.r(U)p.d(C)p.d(T)}$$$RNA1{StrandType:ss}|RNA2{StrandType:as}$” showed a normalised inhibition (eCFP-eYFP dual reporter) of 48.4%. “RNA1{r(A)p.r(U)p.r(C)p.r(C)p.r(U)p.r(A)p.r(A)p.r(U)p.r(A)p.r(U)p.r(U)p.r(A)p.r(G)p.r(U)p.r(U)p.r(C)p.r(C)p.r(G)p.r(U)p.d(T)p.d(T)}|RNA2{r(A)p.r(C)p.r(G)p.r(G)p.r(A)p.r(A)p.r(C)p.r(U)p.r(A)p.r(A)p.r(U)p.r(A)p.r(U)p.r(U)p.r(A)p.r(G)p.r(G)p.r(A)p.r(U)p.d(G)p.d(C)}$$$RNA1{StrandType:ss}|RNA2{StrandType:as}$” showed a normalised inhibition (eCFP-eYFP dual reporter) of 53.2%. With “RNA1{r(A)p.r(U)p.r(C)p.r(U)p.r(U)p.r(G)p.r(U)p.r(A)p.r(G)p.r(A)p.r(U)p.r(G)p.r(A)p.r(G)p.r(A)p.r(A)p.r(U)p.r(U)p.r(U)p.d(T)p.d(T)}|RNA2{r(A)p.r(A)p.r(A)p.r(U)p.r(U)p.r(C)p.r(U)p.r(C)p.r(A)p.r(U)p.r(C)p.r(U)p.r(A)p.r(C)p.r(A)p.r(A)p.r(G)p.r(A)p.r(U)p.d(C)p.d(T)}$$$RNA1{StrandType:ss}|RNA2{StrandType:as}$” the normalised inhibition (eCFP-eYFP dual reporter) was 81.3%. For “RNA1{r(A)p.r(U)p.r(G)p.r(A)p.r(C)p.r(U)p.r(C)p.r(U)p.r(C)p.r(C)p.r(G)p.r(C)p.r(A)p.r(C)p.r(G)p.r(G)p.r(U)p.r(A)p.r(U)p.d(T)p.d(T)}|RNA2{r(A)p.r(U)p.r(A)p.r(C)p.r(C)p.r(G)p.r(U)p.r(G)p.r(C)p.r(G)p.r(G)p.r(A)p.r(G)p.r(A)p.r(G)p.r(U)p.r(C)p.r(A)p.r(U)p.d(T)p.d(G)}$$$RNA1{StrandType:ss}|RNA2{StrandType:as}$”, the normalised inhibition (eCFP-eYFP dual reporter) was 85.7%. With “RNA1{r(A)p.r(U)p.r(G)p.r(U)p.r(U)p.r(C)p.r(A)p.r(A)p.r(A)p.r(C)p.r(A)p.r(G)p.r(A)p.r(C)p.r(A)p.r(G)p.r(C)p.r(U)p.r(C)p.d(T)p.d(T)}|RNA2{r(G)p.r(A)p.r(G)p.r(C)p.r(U)p.r(G)p.r(U)p.r(C)p.r(U)p.r(G)p.r(U)p.r(U)p.r(U)p.r(G)p.r(A)p.r(A)p.r(C)p.r(A)p.r(U)p.d(T)p.d(T)}$$$RNA1{StrandType:ss}|RNA2{StrandType:as}$” the normalised inhibition (eCFP-eYFP dual reporter) was 64.6%. With “RNA1{r(A)p.r(U)p.r(U)p.r(A)p.r(A)p.r(A)p.r(G)p.r(U)p.r(A)p.r(G)p.r(A)p.r(U)p.r(C)p.r(U)p.r(U)p.r(G)p.r(U)p.r(A)p.r(G)p.d(T)p.d(T)}|RNA2{r(C)p.r(U)p.r(A)p.r(C)p.r(A)p.r(A)p.r(G)p.r(A)p.r(U)p.r(C)p.r(U)p.r(A)p.r(C)p.r(U)p.r(U)p.r(U)p.r(A)p.r(A)p.r(U)p.d(T)p.d(T)}$$$RNA1{StrandType:ss}|RNA2{StrandType:as}$” the normalised inhibition (eCFP-eYFP dual reporter) was 45.8%. “RNA1{r(A)p.r(U)p.r(U)p.r(G)p.r(G)p.r(C)p.r(A)p.r(G)p.r(C)p.r(U)p.r(G)p.r(C)p.r(A)p.r(G)p.r(A)p.r(G)p.r(C)p.r(C)p.r(A)p.d(T)p.d(T)}|RNA2{r(U)p.r(G)p.r(G)p.r(C)p.r(U)p.r(C)p.r(U)p.r(G)p.r(C)p.r(A)p.r(G)p.r(C)p.r(U)p.r(G)p.r(C)p.r(C)p.r(A)p.r(A)p.r(U)p.d(A)p.d(G)}$$$RNA1{StrandType:ss}|RNA2{StrandType:as}$” was tested, and the normalised inhibition (eCFP-eYFP dual reporter) was 85%. Substance “RNA1{r(A)p.r(U)p.r(U)p.r(G)p.r(U)p.r(C)p.r(A)p.r(U)p.r(U)p.r(G)p.r(C)p.r(A)p.r(A)p.r(G)p.r(C)p.r(A)p.r(C)p.r(U)p.r(A)p.d(T)p.d(T)}|RNA2{r(U)p.r(A)p.r(G)p.r(U)p.r(G)p.r(C)p.r(U)p.r(U)p.r(G)p.r(C)p.r(A)p.r(A)p.r(U)p.r(G)p.r(A)p.r(C)p.r(A)p.r(A)p.r(U)p.d(A)p.d(A)}$$$RNA1{StrandType:ss}|RNA2{StrandType:as}$” has a normalised inhibition (eCFP-eYFP dual reporter) of 85.4%. “RNA1{r(C)p.r(A)p.r(C)p.r(C)p.r(A)p.r(U)p.r(A)p.r(U)p.r(G)p.r(A)p.r(A)p.r(G)p.r(G)p.r(A)p.r(G)p.r(G)p.r(A)p.r(A)p.r(G)p.d(T)p.d(T)}|RNA2{r(C)p.r(U)p.r(U)p.r(C)p.r(C)p.r(U)p.r(C)p.r(C)p.r(U)p.r(U)p.r(C)p.r(A)p.r(U)p.r(A)p.r(U)p.r(G)p.r(G)p.r(U)p.r(G)p.d(T)p.d(G)}$$$RNA1{StrandType:ss}|RNA2{StrandType:as}$” was tested, and the normalised inhibition (eCFP-eYFP dual reporter) was 69.5%.
